Entries after “also recorded” stand apart in the source; their conditions may differ.
Legend:
[1] = system: Fmr1 KO mice; assay: Three-Chamber Social Interaction Test (TCSIT); assay type: in vivo, mouse
Protocol: (§1) Methods. The study was conducted in 10-week-old male Fmr1 KO mice. Animals were dosed per os with vehicle, R(−)-MDMA (8, 17 and 30 mg/kg) or SR-MDMA (8 mg/kg) with a minimum 3-day washout between doses. […] Compounds were administered 30 minutes prior to each behavioral test. Basic statistical analysis was performed. If more than 2 groups were compared with each other, significance was calculated by One-way or Two-way analysis of variance (ANOVA) followed by the Bonferroni post hoc test. In case of non-normally distributed data, significance was calculated by Kruskal-Wallis test followed by Dunn's multiple comparisons test.
To measure sociability, animals were tested in the Three Chamber Social Interaction Test. It consisted of a habituation phase, an approach phase and a recognition phase (FIG. 5).
On the testing day, the test animal was placed in the center of the box and was allowed to explore it for ten minutes with two empty stranger mouse cylinders on each side of the box for habituation.
Social approach: After habituation, the mouse was removed from the box, the box was cleaned with 70% Isopropanol and dried with a hand fan. A sex-matched stranger mouse was placed into the mouse cylinder in the left chamber and the test animal was placed in the center of the box again for ten minutes.
Social recognition: After the social approach, mice were immediately tested for social recognition. The already known mouse stayed in the left chamber and a new mouse was placed under the cylinder in the right chamber. The test mouse was again placed in the middle chamber and, for 10 minutes, it was measured how much time it spent in each chamber and how much time it spent sniffing each mouse. Healthy mice will spend more time with the new mouse due to novelty. Socially disturbed mice might not recognize the already known mouse and spend therefore similar amounts of time with each mouse.
Both social approach and social recognition were recorded and analyzed by using Noldus Ethovision 8.5.
(§2) Methods. The study was conducted in 96 10-week-old male Fmr1 KO mice. Animals were dosed orally with vehicle, R(−)-3,4-MDMA (8, 17 and 30 mg/kg), S-(+)-3,4-MDMA (8 mg/kg) or (±)-3,4-MDMA (8 mg/kg) with a minimum 3-day washout between doses. In the Three-Chamber Social Interaction Test (TCSIT), a stranger animal was placed in one of two wire cylinders in the testing area. The time spent in each of three arenas: the neutral arena, the stranger arena or the empty arena, was assessed (FIG. 5). Animals were evaluated in the Open Field Test (OFT) measuring hyperactivity, locomotor activity, thigmotaxis and grooming duration (FIGS. 7A-7B). In the Ultrasonic Vocalization (USV) test, male mice were exposed to fresh urine from females in the estrous cycle. Vocal emissions were recorded for 5 minutes and analyzed. Compounds were administered 30 minutes before each behavioral test. Significance was calculated by One-way analysis of variance followed by the Bonferroni post hoc test. In non-normally distributed data, Kruskal-Wallis test followed by Dunn's multiple comparisons test was applied.

[2] = system: Fmr1 KO mice; assay: Ultrasonic Vocalization (USV) test; assay type: in vivo, mouse; details: any dose, oral, 5 minutes recording, P<0.001
Protocol: as §1
Adult male mice emit Ultrasonic Vocalization (USV) under selected experimental conditions, upon encountering a sexually receptive female or female urine. These vocal emissions are considered an index of emotionality, social interest, and motivation.
To induce the estrous cycle in female mice, mice were subcutaneously treated with 50 μl of ß-estradiol 48 hours prior to testing (time sensitive). […]
On the test day, study animals were habituated in a separate soundproof room. Before recording, each mouse was separated from its home cage, placed in another cage that was covered with fresh bedding, and moved to the next soundproof room equipped with an UltraSoundGate Condenser Microphone (CM16; Avisoft Bioacoustics, Berlin, Germany), connected via an Avisoft UltraSoundGate 416 USB Audio device (Avisoft Bioacoustics) to a personal computer, where acoustic data were recorded with a sampling rate of 250,000 Hz in 16-bit format. […] Vocal emission was recorded for 5 minutes.
For acoustical analysis, recordings were transferred to SASLab Pro (Avisoft Bioacoustics) and a fast Fourier transform was conducted (512 FFT length, 100% frame, Hamming window, and 75% time window overlap). […] The total number of vocalizations and the latency to initiate the first call were extracted and evaluated for the whole 5 minutes of recording.
Methods. […] The time spent in each of three arenas: the neutral arena, the stranger arena or the empty arena, was assessed (FIG. 5). […]

[3] = background, limited pre-clinical evidence; cited from earlier work
[4] = system: Fmr1 KO mice; assay: Open Field Test (OFT) including grooming evaluation; assay type: in vivo, mouse
Protocol: as §1
Spontaneous activity and anxiety was assessed in the Open Field by evaluating the following parameters: hyperactivity [s], activity [s], distance [m], rearings [s], rearings [n] and grooming behavior. For that purpose, a Plexiglas Open Field (48×48 cm) in combination with a computerized video tracking system (Noldus Ethovision XT 14) was used (FIGS. 7A-7B).
The mice were brought to the room at least 45 minutes before the start of the testing. Each test session lasted for 5 minutes to check the mice's behavior in the new surroundings, as the first minutes of the Open Field test are the most suitable to display the exploration behavior of the animals. After the testing session, the number of fecal boluses was counted, as a measure of emotionality. The Open Field was cleaned with 70% Isopropanol after each mouse to get rid of odor traces. Testing was performed under standard room lighting conditions during the light phase of the circadian cycle.
as §2

[5] = system: dopamine; details: background, receptor studies and limited pre-clinical evidence; cited from earlier work
[6] = oral, 30 minutes before test, R compared to S or racemate P<0.001

| Structure (SMILES) | Arena Frequency with the stranger ([1]; 8 mg/kg oral) | Interaction Duration with the stranger ([1]; 8 mg/kg oral) | Interaction Index with the stranger ([1]; 8 mg/kg oral) | interaction with the stranger and empty chamber vs. vehicle-treated animals ([1]; 8 mg/kg oral) | number of vocalizations [2] | hyperthermia [3] | number of grooming occasions ([4]; 30 mg/kg oral) | distance moved [4, 6] | hyperactivity [4, 6] | number of grooming occasions ([4]; oral, R 8, 17, 30 mg/kg, S and racemate 8 mg/kg) | Arena Frequency with the stranger ([1]; 30 mg/kg oral, P<0.001) | interaction with the stranger and empty chamber vs. vehicle-treated animals ([1]; all three doses (8, 17 and 30 mg/kg) oral, P<0.01) | effect on social interaction compared with S-(+)-3,4-MDMA or (±)-3,4-MDMA ([1]; conclusion of the study) | social approach and interaction ([1]; male Fmr1 KO mice, oral 8, 17 and 30 mg/kg, 30 minutes before test) | efficacy as a releaser of dopamine [5] |
| --- | --- | --- | --- | --- | --- | --- | --- | --- | --- | --- | --- | --- | --- | --- | --- |
| CNC(C)Cc1ccc2c(c1)OCO2 (racemic) [(±)-3,4-MDMA, S,R(±)-3,4-methylenedioxymethamphetamine] | no effect | no effect | no effect | efficacious only for interaction with the stranger | significantly reduced | – | – | – | – | – | – | – | – | – | – |
| CN[C@H](C)Cc1ccc2c(c1)OCO2 [R(−)-3,4-MDMA, R(−)-3,4-methylenedioxymethamphetamine] | – | – | – | – | significantly reduced | does not produce hyperthermia | active | significantly lesser effect | significantly lesser effect; also recorded: significantly reduced hyperactivity effects | less efficacious than S-(+)-3,4-MDMA or (±)-3,4-MDMA | statistically significant | significant difference | more potent | dose-dependently increased | low efficacy |
| CN[C@@H](C)Cc1ccc2c(c1)OCO2 [S-(+)-3,4-MDMA] | no effect | no effect | no effect | not associated with significant changes | significantly reduced | – | – | – | – | – | – | – | – | – | – |

— patent US20230310368A1, “MDMA ENANTIOMERS” (Mind Medicine, Inc., priority 2021, published 2023)
